{"source": "patent US9464106B2", "about": "“Oligonucleotides useful for detecting and analyzing nucleic acids of interest” (Exiqon A/S, priority 2002, dated 2016)", "note": "l = locked nucleic acid (LNA); [5mC] = 5-methylcytosine; d = 2'-deoxy (DNA)", "data": [{"tested_on": "yeast HSP78 (YDR258C) sequence", "assay": "Duplex melting temperatures of HSP78 25-mer capture probes (UV spectrophotometer)", "settings": "25-mer capture probe duplex with complementary target; design PM = perfectly matched, MM = single mismatch; DNA, LNA_T (T) or LNA_TC (TC) substituted", "units": {"Average duplex melting temp.": "°C"}, "values": [{"substance": "12752 (DNA ACCATCATCACCCAACTTTGTGTCG; DNA, backbone not given here; further chemistry not fully specified) [compound 12752]", "Average duplex melting temp.": 67.5}, {"substance": "12748 (DNA TCAATGGCCTTGGACCATATAATTG; sugars from the 5' end llddlddldllddddldldlddlld, [5mC] at 2, 8, 16, backbone not given here) [compound 12748]", "Average duplex melting temp.": 74.8}, {"substance": "12723 (DNA CACTCTAACAGTATCGCCGTTTCTA; sugars from the 5' end dddldldddddddddddddllldld, backbone not given here) [compound 12723]", "Average duplex melting temp.": 69.7}, {"substance": "12773 (DNA AAAACGACAGCATAAGGCTTTCTTC; DNA, backbone not given here; further chemistry not fully specified) [compound 12773]", "Average duplex melting temp.": 64.5}, {"substance": "12779 (DNA TTGGAAACATCGGGGTGCGCTTTTT; sugars from the 5' end lldddddddldddddlddddlllld, backbone not given here; further chemistry not fully specified) [compound 12779]", "Average duplex melting temp.": 76.7}, {"substance": "12819 (DNA CACTCTAACAGTTTCGCCGTTTCTA; sugars from the 5' end ldldldddldddldddlddldllld, [5mC] at 1, 3, 5, 9, 17, 23, backbone not given here; further chemistry not fully specified) [compound 12819]", "Average duplex melting temp.": 81.9}, {"substance": "12693 (DNA TCAGTTAGCCAAACCTTCGCTTCAT; DNA, backbone not given here) [compound 12693]", "Average duplex melting temp.": 61.4}, {"substance": "12758 (DNA CCGATTAAACGAGAGACAGTATGCT; DNA, backbone not given here; further chemistry not fully specified) [compound 12758]", "Average duplex melting temp.": 65.4}, {"substance": "12797 (DNA AAAACGACAGCATAAGGCTTTCTTC; DNA at ACG, LNA at T, backbone not given here; further chemistry not fully specified) [compound 12797]", "Average duplex melting temp.": 71.7}, {"substance": "12698 (DNA TTTTTCGGCCAATCGATCTTGAATT; DNA, backbone not given here) [compound 12698]", "Average duplex melting temp.": 58.8}, {"substance": "12746 (DNA TTTTTCGGCCAATCGATCTTGAATT; sugars from the 5' end ldldllddlldddddddldldddld, [5mC] at 6, 9, 10, 18, backbone not given here) [compound 12746]", "Average duplex melting temp.": 71}, {"substance": "12756 (DNA GAAACATCGGGGTGCGCTTTTTCAA; DNA, backbone not given here; further chemistry not fully specified) [compound 12756]", "Average duplex melting temp.": 68.7}, {"substance": "12809 (DNA AAATAGCAGCAATGGCCTCGTCTTG; sugars from the 5' end dddlddlddlddlddldlldlddld, [5mC] at 7, 10, 16, 19, backbone not given here; further chemistry not fully specified) [compound 12809]", "Average duplex melting temp.": 86.8}, {"substance": "12727 (DNA CCCAACTTTGTGACGTTTAATAAAA; DNA at ACG, LNA at T, backbone not given here) [compound 12727]", "Average duplex melting temp.": 66.5}, {"substance": "12778 (DNA TGGCCTAGGGAATCGGTCAGCTTAC; DNA at ACG, LNA at T, backbone not given here; further chemistry not fully specified) [compound 12778]", "Average duplex melting temp.": 76.9}, {"substance": "12766 (DNA GTTGCCATGGAGTTCAAAATCTGTC; DNA, backbone not given here) [compound 12766]", "Average duplex melting temp.": 65.8}, {"substance": "12751 (DNA CCCAACTTTGTGACGTTTAATAAAA; sugars from the 5' end llldddllddlddddlllddldddd, [5mC] at 1, 2, 3, backbone not given here) [compound 12751]", "Average duplex melting temp.": 67.6}, {"substance": "12726 (DNA ATTGACCTCAAATCTTTCTTGGATA; sugars from the 5' end dllddddlddddddllldlldddld, backbone not given here) [compound 12726]", "Average duplex melting temp.": 65.1}, {"substance": "12803 (DNA TTGGAAACATCGGGGTGCGCTTTTT; sugars from the 5' end lldddddlddlddddldldddldld, [5mC] at 8, 11, 18, backbone not given here; further chemistry not fully specified) [compound 12803]", "Average duplex melting temp.": 80.8}, {"substance": "12811 (DNA GCAATGGCCTCGTCTTGGCCAACGA; sugars from the 5' end d10 l1 d1 l2 d11, [5mC] at 11, 14, backbone not given here; further chemistry not fully specified) [compound 12811]", "Average duplex melting temp.": 79.3}, {"substance": "12769 (DNA ATAAAGCTGGCAATAGGTCTCTTTT; DNA, backbone not given here; further chemistry not fully specified) [compound 12769]", "Average duplex melting temp.": 63.6}, {"substance": "12796 (DNA TCAATGGCCTTGCACCATATAATTG; DNA at ACG, LNA at T, backbone not given here; further chemistry not fully specified) [compound 12796]", "Average duplex melting temp.": 74}, {"substance": "12823 (DNA CCCAACTTTGTGTCGTTTAATAAAA; sugars from the 5' end llldddllddldlddlllddldddd, [5mC] at 1, 2, 3, backbone not given here; further chemistry not fully specified) [compound 12823]", "Average duplex melting temp.": 74.8}, {"substance": "12682 (DNA TGGCCTAGGGAAACGGTCAGCTTAC; DNA, backbone not given here) [compound 12682]", "Average duplex melting temp.": 65.2}, {"substance": "12783 (DNA ATCAAATAGGAATTCAGCTAAAGCC; DNA at ACG, LNA at T, backbone not given here; further chemistry not fully specified) [compound 12783]", "Average duplex melting temp.": 66.3}, {"substance": "12705 (DNA CAATGATCGTGTAACGGAAATCAAC; sugars from the 5' end dddlddlddlddddddddddldddd, backbone not given here) [compound 12705]", "Average duplex melting temp.": 65.2}, {"substance": "12714 (DNA ATAGCAGCAATGCCCTCGTCTTGGC; DNA at ACG, LNA at T, backbone not given here) [compound 12714]", "Average duplex melting temp.": 71.3}, {"substance": "12718 (DNA GTTGCCATGGAGATCAAAATCTGTC; sugars from the 5' end dllddddldddddddddddldldld, backbone not given here) [compound 12718]", "Average duplex melting temp.": 69.2}, {"substance": "12717 (DNA TCAGTTAGCCAAACCTTCGCTTCAT; sugars from the 5' end ldddlldddddddddlldddllddd, backbone not given here) [compound 12717]", "Average duplex melting temp.": 69.4}, {"substance": "12770 (DNA TTTTTCGGCCAAACGATCTTGAATT; DNA, backbone not given here; further chemistry not fully specified) [compound 12770]", "Average duplex melting temp.": 65}, {"substance": "12699 (DNA CACTCTAACAGTATCGCCGTTTCTA; DNA, backbone not given here) [compound 12699]", "Average duplex melting temp.": 61.1}, {"substance": "12794 (DNA TTTTTCGGCCAAACGATCTTGAATT; sugars from the 5' end ldllldddddddddddldlldddld, backbone not given here; further chemistry not fully specified) [compound 12794]", "Average duplex melting temp.": 71}, {"substance": "12701 (DNA AAAACGACAGCAAAAGGCTTTCTTC; DNA, backbone not given here) [compound 12701]", "Average duplex melting temp.": 58.8}, {"substance": "12772 (DNA TCAATGGCCTTGCACCATATAATTG; DNA, backbone not given here) [compound 12772]", "Average duplex melting temp.": 64}, {"substance": "12721 (DNA ATAAAGCTGGCAAAAGGTCTCTTTT; sugars from the 5' end dldddddldddddddddldldllld, backbone not given here) [compound 12721]", "Average duplex melting temp.": 67.2}, {"substance": "12808 (DNA GACCTAAGAACATAAAGCTGGCAAT; sugars from the 5' end ddllldddddldlddddllddlddd, all C 5-methyl, backbone not given here; further chemistry not fully specified) [compound 12808]", "Average duplex melting temp.": 78.9}, {"substance": "12767 (DNA AGACGTACAGCATCAGAAATAGCAG; DNA, backbone not given here; further chemistry not fully specified) [compound 12767]", "Average duplex melting temp.": 66.6}, {"substance": "12750 (DNA ATTGACCTCAAATCTTTCTTGGATA; sugars from the 5' end dllddlllldddddlldllldddld, [5mC] at 6, 7, 9, 18, backbone not given here) [compound 12750]", "Average duplex melting temp.": 72.2}, {"substance": "12792 (DNA TTTGGTAGCACGACAAGCTTAGTAT; sugars from the 5' end lllddlddddddddddddllddldd, backbone not given here; further chemistry not fully specified) [compound 12792]", "Average duplex melting temp.": 74.2}, {"substance": "12706 (DNA TGGCCTAGGGAAACGGTCAGCTTAC; DNA at ACG, LNA at T, backbone not given here) [compound 12706]", "Average duplex melting temp.": 71.6}]}]}
